From patent EP4417607A1, “HETEROCYCLIC COMPOUND AS SOS1 INHIBITOR AND USES THEREOF” (Nanjing Zaiming Pharmaceutical Co., Ltd., priority 2021, dated 2023) come the findings set out here.

One test concerns H358 cells. The experiment in a line: H358 cell proliferation inhibition (CellTiter-Glo luminescent cell viability assay). Conditions: Homo sapiens, NCI-H358, 168 h, 7 days. It counts as cell-based. The protocol: The effect of the compounds of the present invention on H358 cell proliferation was assessed by CellTiter-Glo luminescent cell viability assay kit method.
H358 cells (ATCC, CRL-5807) were cultured in RPMI1640 (Hyclone, SH30256.01) complete medium containing 10% FBS (Gibco, 10100147) and 100 U/mL penicillin-streptomycin mixed solution (Gibco, 15140163). When the cells grew to 80-90%, the cells were digested, pipetted, and seeded in a 96-well plate (Corning, 4515) at 3000 cells/well (180 µL RPMI1640 complete medium), and then the 96-well plate was incubated overnight in an incubator at 37 °C with 5% CO2.
After incubation overnight, 20 µL of a diluted test compound was added to each well using a multi-channel pipette, and the 96-well plate was placed in an incubator at 37 °C with 5% CO2 for further culture. After 7 days, 100 µL of the supernatant was pipetted and discarded. 50 µL of CellTiter-Glo® 3D Cell Viability Assay liquid was added to each well. The plate was shaken at room temperature at 450 rpm for 30 min. After the cells were completely lysed, "Luminescence" on the microplate reader was selected for plate reading. In this experiment, the cell-free group (replaced with 1640 medium) was used as the 100% inhibition group, and the compound-free group in which the cell was added was used as the 0% inhibition group.
The inhibition percentage of H358 cell proliferation by the compounds of the present invention could be calculated by the following formula: [formula]
(§1) IC50 values of the compounds were calculated from 8 concentration points using XLfit (ID Business Solutions Ltd., UK) software by the following formula: Y = Bottom + (Top−Bottom)/(1+10^(∧)((logIC50−X)×slopefactor)) [formula]
Y is the inhibition percentage, X is the logarithmic value of the concentration of the test compound, Bottom is the minimum inhibition percentage, Top is the maximum inhibition percentage, and slope factor is the slope coefficient of the curve.
On the technique in general: Cellular ATP, detected with luciferase, serves as a proxy for viable cell number.

Test [1] has as its system p-ERK pathway in H358 cells. The test can be described thus: p-ERK pathway inhibition in H358 cells (Advanced phospho-ERK (Thr202/Tyr204) cellular kit, HTRF). The format is cell-based. As to conditions: Homo sapiens, NCI-H358, 1 h compound incubation. Here is the method:
The effect of the compounds of the present invention on H358 cell p-ERK pathway was assessed by Advanced phospho-ERK (Thr202/Tyr204) cellular kit method.
The experimental procedures were summarized as follows: H358 cells (ATCC, CRL-5807) were cultured in RPMI1640 (ThermoFisher, A1049101) complete medium containing 10% FBS (Gibco, 10100147) and 100 U/mL penicillin-streptomycin mixed solution (Gibco, 15140163). When the coverage of the cells in the culture vessel reached 80-90%, the cells were pipetted and seeded in a 96-well plate (Corning, 3599) at 50000 cells/well (90 µL RPMI1640 complete medium), and the plate was left to stand for 5 min, cultured in an incubator at 37 °C with 5% CO2 for 6 h, replaced with a serum-free RPMI1640, and starved overnight.
After incubation overnight, 10 µL of a diluted test compound was added to each well using a multi-channel pipette, and the 96-well plate was cultured in an incubator at 37 °C with 5% CO2 for 1 h. The supernatant was poured. The cells were washed once with PBS. 50 µL of a lysis buffer (Advanced phospho-ERK (Thr202/Tyr204) cellular kit, 64AERPEH) was added to each well. The plate was shaken at room temperature at 450 rpm for 1 h. After the cells were completely lysed, 16 µL of the supernatant was added to a 384-well plate (PE, 6007299), mixed energy donor Eu and energy acceptor D2 (D2/Eu = 1:1) were added, and the plate was incubated at room temperature for 4 h. HTRF on the microplate reader was selected for plate reading, Ratio = Signal 665 nm/Signal 620 nm × 10^4. In this experiment, the cell-free group (replaced with 1640 medium) was used as the 100% inhibition group, and the compound-free group in which the cell was added was used as the 0% inhibition group.
The inhibition percentage of H358 cell p-ERK pathway by the compounds of the present invention could be calculated by the following formula: [formula]
as §1
Y is the inhibition percentage, X is the logarithmic value of the concentration of the test compound, Bottom is the minimum inhibition percentage, Top is the maximum inhibition percentage, and slope factor is the slope coefficient of the curve. The default fitted curve was used to fit the slope of the S-shaped curve to determine the IC50 value. Table 2. Results of p-ERK inhibition test by the compounds of the present invention
For orientation: Time-resolved FRET reads energy transfer from a long-lived donor to a nearby acceptor.

As to `Cc1nc(N[C@H](C)c2cccc(S(F)(F)(F)(F)F)c2)c2cn(N3CCOCC3)c(=O)c(N3CCN(C)CC3)c2n1` [Example 82, (R)-2-methyl-8-(4-methylpiperazin-1-yl)-6-morpholine-4-((1-(3-(pentafluoro-λ^6-sulfanyl)phenyl)ethyl)amino)pyrido[4,3-d]pyrimidine-7(6H)-one], the IC50 (usually the concentration at which inhibition is half-maximal) in the test with H358 cells amounted to 30.4 nM; in test [1], 74.6 nM.
On to `CC[C@H]1COCCN1c1c(=O)n(C2(CF)CC2)cc2c(N[C@H](C)c3cccc(C(F)F)c3F)nc(C)nc12` [Example 58, 4-(((R)-1-(3-(difluoromethyl)-2-fluorophenyl)ethyl)amino)-8-((S)-3-ethylmorpholino)-6-(1-(fluoromethyl)cyclopropyl)-2-methylpyrido[4,3-d]pyrimidine-7(6H)-one], for which the concentration for half-maximal inhibition (IC50) with H358 cells stood at 57.9 nM; in test [1] it was 112 nM.
For `Cc1nc(N[C@H](C)c2cccc(C(F)F)c2F)c2cn(N3CCOCC3)c(=O)c(-c3cnc4ccnn4c3)c2n1` [Example 120, (R)-4-((1-(3-(difluoromethyl)-2-fluorophenyl)ethyl)amino)-2-methyl-6-morpholino-8-(pyrazolo[1,5-a]pyrimidin-6-yl)pyrido[4,3-d]pyrimidine-7(6H)-one] the same measures were 46 nM and 87.4 nM.
For `Cc1nc(N[C@H](C)c2cccc(C(F)F)c2F)c2cn(C3(CF)CC3)c(=O)c(N3CC4CC(C3)N4C3COC3)c2n1` [Example 152, 4-(((R)-1-(3-(difluoromethyl)-2-fluorophenyl)ethyl)amino)-6-(1-(fluoromethyl)cyclopropyl)-2-methyl-8-(6-(oxetan-3-yl)-3,6-diazabicyclo[3.1.1]heptan-3-yl)pyrido[4,3-d]pyrimidine-7(6H)-one] the same measures were 13.6 nM and 76.3 nM.
For `Cc1nc(N[C@H](C)c2cccc([N+](=O)[O-])c2C)c2cn(C3(CF)CC3)c(=O)cc2n1` [Example 13], in that order: 54.1 nM and 131 nM.
For `Cc1nc(N[C@H](C)c2cccc(C#N)c2C)c2cn(C3(CF)CC3)c(=O)c(N3CCOCC3(C)C)c2n1` [Example 171, (R)-3-(1-((8-(3,3-dimethylmorpholinyl)-6-(1-(fluoromethyl)cyclopropyl)-2-methyl-7-oxo-6,7-dihydropyrido[4,3-d]pyrimidin-4-yl)amino)ethyl)-2-methylbenzonitrile], the figures for the half-maximal inhibitory concentration (IC50) (in the test on H358 cells; in test [1]) were 52.7 nM and 75.6 nM, respectively.
For `Cc1nc(N[C@H](C)c2cccc(C(F)F)c2F)c2cn(C3(CF)CC3)c(=O)c(OC(C)C)c2n1` [Example 36, (R)-4-((1-(3-(difluoromethyl)-2-fluorophenyl)ethyl)amino)-6-(1-(fluoromethyl)cyclopropyl)-8-isopropoxy-2-methylpyrido[4,3-d]pyrimidine-7(6H)-one], in that order: 64.8 nM and 69.1 nM.
For `CC(=O)N1CCC(Oc2c(=O)n(C3(CF)CC3)cc3c(N[C@H](C)c4cccc(C(F)F)c4F)nc(C)nc23)CC1` [Example 73, (R)-8-((1-acetylpiperidin-4-yl)oxy)-4-((1-(3-(difluoromethyl)-2-fluorophenyl)ethyl)amino)-6-(1-(fluoromethyl)cyclopropyl)-2-methylpyrido[4,3-d]pyrimidine-7(6H)-one], in that order: 71.8 nM and 104 nM.
For `Cc1nc(N[C@H](C)c2cccc(C(F)F)c2F)c2cn(C3(CF)CC3)c(=O)c(N3CCN4CCC[C@@H]4C3)c2n1` (stereo in doubt) [Example 97, 4-(((R)-1-(3-(difluoromethyl)-2-fluorophenyl)ethyl)amino)-6-(1-(fluoromethyl)cyclopropyl)-8-((R)-hexahydropyrrolo[1,2-a]pyrazin-2(1H)-yl)-2-methylpyrido[4,3-d]pyrimidine-7(6H)-one], the concentration for half-maximal inhibition (IC50) in the test with H358 cells was 11.8 nM; in test [1], 66.3 nM.
As to `COc1c(=O)n(C2(CC#N)CC2)cc2c(N[C@H](C)c3cccc(C(F)F)c3F)nc(C)nc12` [Example 32, (R)-2-(1-(4-((1-(3-(difluoromethyl)-2-fluorophenyl)ethyl)amino)-8-methoxy-2-methyl-7-oxopyrido[4,3-d]pyrimidine-6(7H)-yl)cyclopropyl)acetonitrile], the half-maximal inhibitory concentration (IC50) in the test on H358 cells came out at 134 nM; in test [1] it was 48.9 nM.
In the case of `Cc1nc(N[C@H](C)c2cccc(C(F)F)c2F)c2cn(C3(CF)CC3)c(=O)c(N=S(C)(C)=O)c2n1` [Example 103, (R)-4-((1-(3-(difluoromethyl)-2-fluorophenyl)ethyl)amino)-8-((dimethyl(oxo)-λ^6-sulfanylidene)amino)-6-(1-(fluoromethyl)cyclopropyl)-2-methylpyrido[4,3-d]pyrimidine-7(6H)-one], the 50% inhibitory concentration (IC50) in the test on H358 cells was 130 nM; in test [1] it was 82.4 nM.
For `Cc1nc(N[C@H](C)c2cccc(C(F)F)c2F)c2cn(C3(CF)CC3)c(=O)c(Oc3ccnc(C#N)c3)c2n1` [Example 72, (R)-4-((4-((1-(3-(difluoromethyl)-2-fluorophenyl)ethyl)amino)-6-(1-(fluoromethyl)cyclopropyl)-2-methyl-7-oxo-6,7-dihydropyrido[4,3-d]pyrimidin-8-yl)oxy)pyridinecarbonitrile], in that order: 73.8 nM and 72.4 nM.
On to `Cc1nc(N[C@H](C)c2cccc(C(F)F)c2F)c2cn(C3(CF)CC3)c(=O)c(N3CCN(C)CC3)c2n1` [Example 38, (R)-4-((1-(3-(difluoromethyl)-2-fluorophenyl)ethyl)amino)-6-(1-(fluoromethyl)cyclopropyl)-2-methyl-8-(4-methylpiperazin-1-yl)pyrido[4,3-d]pyrimidine-7(6H)-one], for which the half-maximal inhibitory concentration (IC50) in the test with H358 cells worked out at 11.7 nM; in test [1], 100 nM.
For `Cc1nc(N[C@H](C)c2cccc([N+](=O)[O-])c2C)c2cn(C3(CF)CC3)c(=O)c(N3CCOCC3)c2n1` [Example 117, (R)-6-(1-(fluoromethyl)cyclopropyl)-2-methyl-4-((1-(2-methyl-3-nitrophenyl)ethyl)amino)-8-morpholinylpyrido[4,3-d]pyrimidine-7(6H)-one], in that order: 13.3 nM and 22.4 nM.
For `COc1c(=O)n(C2(C)CCN(C(C)=S)C2)cc2c(N[C@H](C)c3cccc(C(F)F)c3F)nc(C)nc12` (stereo partly drawn) [Example 19], in that order: 69.6 nM and 52.5 nM.
As for `Cc1nc(N[C@H](C)c2cccc(C(C)(F)F)c2F)c2cn(C3(CF)CC3)c(=O)c(N3CCOC[C@@H]3C)c2n1` [Example 114, 4-(((R)-1-(3-(1,1-difluoroethyl)-2-fluorophenyl)ethyl)amino)-6-(1-(fluoromethyl)cyclopropyl)-2-methyl-8-((S)-3-methylmorpholine)pyrido[4,3-d]pyrimidine-7(6H)-one], the IC50 amounted to 24.6 nM in the test with H358 cells and 54.8 nM in test [1].
For `Cc1nc(N[C@H](C)c2cccc(C(F)F)c2F)c2cn(C3(CF)CC3)c(=O)c(N3CCN(C4CC4)CC3)c2n1` [Example 142, (R)-8-(4-cyclopropylpiperazin-1-yl)-4-((1-(3-(difluoromethyl)-2-fluorophenyl)ethyl)amino)-6-(1-(fluoromethyl)cyclopropyl)-2-methylpyrido[4,3-d]pyrimidine-7(6H)-one], in that order: 24.1 nM and 43.7 nM.
For `Cc1nc(N[C@H](C)c2cccc(C(F)F)c2F)c2cn(N3CCOCC3)c(=O)c(-c3cnc4c(cnn4C)c3)c2n1` [Example 100], in that order: 80.8 nM and 49.8 nM.
